No end group written: not given here.
Legend:
[1] = target: T1, A. mellifera TRP receptor (AmTRP-R) (Apis mellifera, UniProt A0ACM8RFV8); assay: Aequorin calcium-mobilization reporter assay, AmTRP-R transiently expressed in CHO-K1 cells with Ga16; assay type: cell-based; settings: for Agonistic activity, AmTRP-R 0.01μM: ligand 0.01 μM; for Agonistic activity, AmTRP-R 0.01μM / Agonistic activity, AmTRP-R 1μM: relative luminescence normalized by highest activity of endogenous ligand AmTRP1, 3 biological replications; for Agonistic activity, AmTRP-R 1μM: ligand 1 μM; for EC50: CHO-K1 cells, Ga16 + aequorin luminescence, 10-fold serial dilutions, logistic fitting of dose-response curves; for Agonistic activity on AmTRP-R (in words): dose-response or expanded ligand test, 1 and 0.01 μM
T1 sequence (A0ACM8RFV8 1-421): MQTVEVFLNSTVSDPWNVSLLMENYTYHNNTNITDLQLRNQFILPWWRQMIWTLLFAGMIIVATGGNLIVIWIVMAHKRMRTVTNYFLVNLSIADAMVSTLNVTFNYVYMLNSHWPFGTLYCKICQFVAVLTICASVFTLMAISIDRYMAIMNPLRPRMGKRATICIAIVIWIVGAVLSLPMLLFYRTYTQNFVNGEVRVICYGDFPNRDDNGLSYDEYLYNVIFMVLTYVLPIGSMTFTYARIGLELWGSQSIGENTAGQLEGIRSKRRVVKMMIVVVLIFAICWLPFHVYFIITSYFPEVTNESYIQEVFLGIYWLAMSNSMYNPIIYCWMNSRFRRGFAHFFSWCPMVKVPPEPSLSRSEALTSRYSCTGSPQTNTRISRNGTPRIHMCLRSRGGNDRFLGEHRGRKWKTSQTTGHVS
Text: (§1) In this system, ligand-mediated G-protein-coupled receptor (GPCR) activation initiates calcium mobilization that is indicated by the increased luminescence of aequorin.
(§2) The PCR amplicons of the full open reading frames (ORFs) of the three receptors were initially cloned into the pGEMT easy vector (Promega) and transferred to the expression vector pcDNA3.1(+) (Invitrogen) using the common restriction enzymes in the multi-cloning site (EcoRI for AmTRPR, NotI for both VdNTLR and VdTRPR). The sequences of the inserts were confirmed by Sanger sequencing prior to heterologous expression. High-quality plasmid DNA prepared using the plasmid MIDIprep kit (Qiagen) was used for transient transfection. The methods for transient expression of aequorin and G-alpha16 in Chinese hamster ovary (CHO-K1) cells and the procedures for the assays were previously described. Thirty hours after the transfection, the cells were collected and preincubated with the coelenterazine (Invitrogen) for the functional assay as previously described. Serial dilutions (10-fold, ranging from 0.001 to 1000 nM) of the 10 endogenous ligands were used for treatment of the cells. These ten natural ligands included two […] and three […] predicted from the respective putative precursors and also included five AmTRP peptides. The elevated luminescence caused by intracellular calcium mobilization was measured for a continuous 20 seconds at every 100-ms interval. Dose response curves and EC50s of each ligand for each receptor were obtained by logistic fitting in Origin 8.6 (OriginLab).
(§3) The test ligands were mainly the NTL peptides of T. castaneum, D. melanogaster, B. mori, and Anopheles gambiae and two TRPs, TcTRP4 and DmTRP6. Two doses of each ligand were tested for each receptor: 1 and 0.1 μM for VdNTL-R and VdTRP-R and 1 and 0.01 μM for AmTRP-R.

[2] = target: T2, V. destructor TRP receptor (VdTRP-R) (Varroa destructor, UniProt A0A141CIT9); assay: Aequorin calcium-mobilization reporter assay, VdTRP-R transiently expressed in CHO-K1 cells with Ga16; assay type: cell-based; settings: for Receptor specificity among VdNTL-R, VdTRP-R and AmTRP-R (in words): expanded ligand test at two concentrations on the three receptors; for Agonistic activity, VdTRP-R 0.1μM: ligand 0.1 μM; for Agonistic activity, VdTRP-R 0.1μM / Agonistic activity, VdTRP-R 1μM: relative luminescence normalized by highest activity of endogenous ligand VdTRP3, 3 biological replications; for Agonistic activity, VdTRP-R 1μM: ligand 1 μM; for EC50: CHO-K1 cells, Ga16 + aequorin luminescence, 10-fold serial dilutions, logistic fitting of dose-response curves
T2 sequence (A0A141CIT9 1-437): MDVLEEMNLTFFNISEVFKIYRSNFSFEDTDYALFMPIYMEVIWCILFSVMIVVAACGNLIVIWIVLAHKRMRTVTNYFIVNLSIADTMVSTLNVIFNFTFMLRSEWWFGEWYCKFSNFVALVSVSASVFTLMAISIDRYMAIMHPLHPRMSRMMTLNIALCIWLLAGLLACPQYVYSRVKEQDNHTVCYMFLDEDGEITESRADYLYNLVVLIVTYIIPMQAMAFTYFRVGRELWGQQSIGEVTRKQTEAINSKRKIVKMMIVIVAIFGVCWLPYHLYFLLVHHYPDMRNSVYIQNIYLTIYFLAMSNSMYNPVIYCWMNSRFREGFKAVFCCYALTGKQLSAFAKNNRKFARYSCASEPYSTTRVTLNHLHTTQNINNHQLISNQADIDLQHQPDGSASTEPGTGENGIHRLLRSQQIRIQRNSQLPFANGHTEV
Text: as §1, §2, §3

[3] = target: T3, V. destructor NTL receptor (VdNTL-R) (Varroa destructor, UniProt A0A141CIT8); assay: Aequorin calcium-mobilization reporter assay, VdNTL-R transiently expressed in CHO-K1 cells with Ga16; assay type: cell-based; settings: for Agonistic activity, VdNTL-R 0.1μM: ligand 0.1 μM; for Agonistic activity, VdNTL-R 0.1μM / Agonistic activity, VdNTL-R 1μM: relative luminescence normalized by highest activity of endogenous ligand VdNTL1, 3 biological replications; for Agonistic activity, VdNTL-R 1μM: ligand 1 μM; for EC50: CHO-K1 cells, Ga16 + aequorin luminescence, 10-fold serial dilutions, logistic fitting of dose-response curves
T3 sequence (A0A141CIT8 1-461): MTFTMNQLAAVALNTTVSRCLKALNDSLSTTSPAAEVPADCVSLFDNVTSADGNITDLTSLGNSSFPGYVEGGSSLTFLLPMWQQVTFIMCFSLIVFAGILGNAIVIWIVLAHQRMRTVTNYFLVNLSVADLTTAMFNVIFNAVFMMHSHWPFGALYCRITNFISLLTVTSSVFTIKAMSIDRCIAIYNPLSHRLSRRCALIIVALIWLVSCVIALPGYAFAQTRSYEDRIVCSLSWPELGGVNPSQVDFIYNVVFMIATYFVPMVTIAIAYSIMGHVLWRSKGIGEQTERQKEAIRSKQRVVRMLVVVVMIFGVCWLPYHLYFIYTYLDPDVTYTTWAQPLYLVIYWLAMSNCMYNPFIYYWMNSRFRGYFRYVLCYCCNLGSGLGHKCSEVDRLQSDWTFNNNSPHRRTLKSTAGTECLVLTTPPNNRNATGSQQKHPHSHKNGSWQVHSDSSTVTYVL
Text: as §1, §2, §3

[4] = test system: cockroach TRP myotropic bioassay; settings: cited from earlier work
[5] = test system: pea aphid Acyrthosiphon pisum; settings: by feeding; cited from earlier work
[6] = expanded ligand test, 1 and 0.1 μM

| Substance | Agonistic activity, AmTRP-R 0.01μM [1] | Agonistic activity, AmTRP-R 1μM [1] | Agonistic activity, VdTRP-R 0.1μM [2] | Agonistic activity, VdTRP-R 1μM [2] | Agonistic activity, VdNTL-R 0.1μM [3] | Agonistic activity, VdNTL-R 1μM [3] | EC50 [1] | EC50 [2] | further results |
| --- | --- | --- | --- | --- | --- | --- | --- | --- | --- |
| TEENPFWANR-NH2 [BmNTL5, NTL peptide of B. mori] | 6 RLU | -0.2 RLU | 7.3 RLU | 61.2 RLU | 0.3 RLU | 0.4 RLU |  |  | Receptor specificity among VdNTL-R, VdTRP-R and AmTRP-R (in words) [2]: specifically activated only VdTRP-R |
| NPRWEFRGKFVGVR-NH2 [AmTRP7] |  |  |  |  |  |  | 0.0008 µM | 0.093 µM | Lower sensitivity of VdTRP-R relative to VdTRP3 ([2]; fold lower sensitivity versus VdTRP3): > 10 × |
| HRNLFQVDDPFFATRa [DmNTL4, NTL peptide of D. melanogaster] | 9.5 RLU | 79.7 RLU | 10.3 RLU | 70.9 RLU | 0.8 RLU | 30.4 RLU |  |  |  |
| AFHAMR-NH2 [VdTRP1] |  |  |  |  |  |  | 0.095 µM | 0.055 µM |  |
| APMGFQGMR-NH2 [AmTRP2,3] |  |  |  |  |  |  |  | 0.25 µM |  |
| AAPFHAMR-NH2 [VdTRP2] |  |  |  |  |  |  | 0.095 µM | 0.071 µM |  |
| SIGGPAPGFVGAR-NH2 [VdNTL1] | 60.2 RLU | 98.4 RLU | 1.3 RLU | 18.6 RLU | 96.2 RLU | 100 RLU | 0.0045 µM |  | Difference in activity on AmTRP-R between VdNTL1 and VdNTL2 ([1]; VdNTL1 compared with VdNTL2): approximately 6 ×; EC50 [3]: 0.026 µM |
| pQA[Aib]SGFL[Aib]VRamide [compound 1888] | -0.4 RLU | 62.9 RLU | 0.3 RLU | 1 RLU | -0.4 RLU | 1.9 RLU |  |  | Agonistic activity on AmTRP-R (in words) [1]: some activity; Agonistic activity on VdTRP-R (in words) [2, 6]: failing to show agonistic activity; Activity in a cockroach TRP myotropic bioassay [4]: highly potent activity; Oral aphicidal activity [5]: potent oral aphicidal activity; Agonistic activity on VdNTL-R (in words) [3, 6]: failing to show agonistic activity |
| GGVPGFVGAR-NH2 [VdNTL2] |  |  |  |  |  |  | 0.0007 µM |  | Agonistic activity on AmTRP-R (in words) [1]: equally potent as the AmTRPs; EC50 [3]: 0.037 µM |
| GSFFGMR-NH2 [VdTRP3, GSFFGMRa] | 58 RLU | 96.3 RLU | 107.6 RLU | 100 RLU |  | 24.8 RLU | 0.013 µM | 0.0043 µM |  |
| DLRQENDPFWGNR-NH2 [BmNTL3, NTL peptide of B. mori] | 4.7 RLU | -0.8 RLU | 30.7 RLU | 83.4 RLU | 0.4 RLU | 0.1 RLU |  |  | Receptor specificity among VdNTL-R, VdTRP-R and AmTRP-R (in words) [2]: specifically activated only VdTRP-R |
| ALMGFQGVR-NH2 [AmTRP1] | 69 RLU | 100 RLU | 2.5 RLU | 34.9 RLU |  | 37.1 RLU | 0.0003 µM |  |  |
| ASGQEEFGPFWANRa [TcNTL1, NTL peptide of T. castaneum] | 4.6 RLU | -0.2 RLU | 2.2 RLU | 60.7 RLU | 1 RLU | 1.5 RLU |  |  | Receptor specificity among VdNTL-R, VdTRP-R and AmTRP-R (in words) [2]: specifically activated only VdTRP-R |
| LQLRDLYNADDPFVPNRa [DmNTL5, NTL peptide of D. melanogaster] | 6.5 RLU | -1.2 RLU | 0.7 RLU | 3.1 RLU | 0.2 RLU | 0.1 RLU |  |  |  |

Source: PMC4730192, “Ligand selectivity in tachykinin and natalisin neuropeptidergic systems of the honey bee parasitic mite Varroa destructor” (Scientific Reports, 2016)
